Results as given in patent US7666393B2, “Methods for assessing antiangiogenic agents” (Children's Medical Center Corporation, priority 2001, dated 2010).

Tests used:
CAM vascularization = settings: in vivo; cited from earlier work
[1] = test system: Human peripheral blood mononuclear cells (PBMNC); assay: In vitro formation of colonies from human peripheral blood mononuclear cells (EPC differentiation assay); format: cell-based; settings: medium with bFGF and VEGF, 6 days culture after addition
Description: Human peripheral blood mononuclear cells (PBMNC) were purified over Ficoll gradient and seeded onto non-treated plastic dish for 24 hr. Non. adherent cells were, transferred to a gelatin coated 48 well dish in medium containing basic fibroblast growth factor (BFGF) and VEGF. Angiostatin and endostatin were added to the medium 24 hours later and cells were cultured for additional 6 days. At the end of the experiment the colonies were fixed with ethanol, stained with methyl-methylene blue and counted (FIGS. 1A-C). […] There was no difference in the effects of angiostatin between the two concentrations used. […] Taken together, it appears that angiostatin and endostatin block the differentiation of EC from their circulating progenitors.

EPC [2] = assay: EPC in peripheral blood of cancer patients undergoing endostatin treatment (P1H12-positive cells); format: in vivo, human; settings: for percentage of EPC: about 240 mg/m^3 daily
Description: Recombinant human Endostatin (rhEndostatin, Endostatin™ EntreMed, Inc, Rockville, Md.) is under investigation in clinical Phase I trials in patients with advanced, refractory cancers. Twenty eight patients, age ranging from 28 to 72 years old with various types of cancer such as breast, colorectal and soft tissue sarcoma, participated in a phase I clinical trial at the Dana Farber Cancer Institute in Boston. We obtained blood samples from 7 patients that were treated with endostatin. The response of EPC to rhEndostatin differed between patients in accordance with differing clinical courses. The first group consisted of 4 patients with slowly progressive, stable or decreasing cancers that were followed with samples for 130-250 days (FIG. 6A). The second group consisted of patients with faster progressing cancer unaffected by rhEndostatin administration. This group was followed during 30 days of endostatin treatment (FIG. 6B). PBMNC were purified from the blood over “Ficoll” gradient and cells corresponding to 0.5 or 1 ml of blood were placed in a “Cytospin” tube. The cells were loaded onto glass slides, fixed and immuno-stained with FITC-conjugated P1H12 antibodies. Cell nuclei were stained with DAPI. The number of P1H12-positive cells was calculated as percentage of total PBMNC. EPC percentage varied among patients and was between 1.8-3.5%. […] Patients from the first group were initially administered with daily intravenous injections of 60 mg/m^3 endostatin. […] The administration of endostatin was later changed to continuous infusion (60 mg/m^3/day).
The second group of patients were at the beginning of endostatin treatment (daily IVB injections of about to 240 mg/m^3). The initial amount of EPC in this group varied between 0.4-1.6%. […] In these patients only 2-3 measurements of EPC were available because of rapid disease progression. […] On the other hand, minor response or stable disease progression upon endostatin administration was associated with reduction in the number EPC in peripheral blood, whereas an increase in EPC was associated with rapid disease progression.

EPC [3] = assay: Tumor-induced mobilization of EPC in SCID mice bearing HS-VF tumors; format: in vivo; settings: 7 days
Description: Many tumors secrete high levels of VEGF that can promote differentiation and mobilization of EPC. To test the effects of endostatin on tumor-induced mobilization of EPC, SCID mice (5 per group) were first injected subcutaneously with human pancreatic tumor cells (HS-VF cell, 2×10^6 cells/mouse) overexpressing VEGF. Eight days later half of the mice were implanted with “Alzet” osmotic pumps releasing murine endostatin (8-12 mg/kg/day) and the other half with pumps releasing saline. SCID mice that were not injected with tumor cells or pumps (normal SCID mice) served as a control to measure the number of EPC. After seven days, mice were sacrificed and blood samples were collected.
PBMNC were purified over “Ficoll” gradient and cells corresponding to 0.5 ml of blood were placed in a “Cytospin” tube. The cells were loaded onto glass slides, fixed and immunostained with MECA-32 antibodies, that specifically detect murine EC. The staining was developed with FITC-labeled (green) secondary antibodies and cell nuclei were stained with DAPI (blue). The proportion of MECA-32 positive cells from total PBMNC was calculated and shown in the graph of FIG. 4A.
Control mice had 0.29% MECA-32 positive cells in the PBMNC preparation. […]

EPC [4] = assay: VEGF-induced mobilization of EPC in mice (PBMNC colonies from peripheral blood); format: in vivo
Description: PBMNC from 1 ml of peripheral mouse blood were plated in medium containing bFGF and VEGF (FIG. 2A). […] Similar results were obtained with peripheral blood from mice, which were injected with microencapsulated cells producing endostatin (approximately 0.5×10^6 cells per mice) (Joki et al., 2001) (FIG. 2D). In order to elevate the number of EPC in the blood, the mice received injection of 0.5×10^6 cells producing VEGF, that were micro-encapsulated similar to the endostatin producing cells (FIGS. 2B-C).
PBMNC from VEGF injected mice were further analyzed by immunostaining in order to confirm their identity. Blood-derived cells were stained positively for VEGF-R2 (Flk-1), CD-31, BS-1 (a lectin specifically expressed on mouse EC) and for von-Wilerband factor (F.VIII). Only a few cells were stained positively for CD-14, a marker for macrophages. […] Furthermore, this in vivo effect of endostatin can be seen only if the starting number of EPC in the blood is high as a result of the VEGF treatment.

Question: With `CO[C@@H]1[C@H](OC(=O)NC(=O)CCl)CC[C@]2(CO2)[C@H]1[C@@]1(C)O[C@@H]1CC=C(C)C` [TNP-470, reference compound] as the compound, how does the CAM vascularization (CAM vascularization) read?
Answer: Its CAM vascularization is “greatly inhibit”.

Question: For angiostatin, which CAM vascularization (CAM vascularization) is on record?
Answer: Its CAM vascularization is “greatly inhibit”.

Question: What about the “formation of PBMNC colonies” value ([1]; 2 μg/ml) of the same compound?
Answer: Its value is “completely blocked”.

Question: And the “formation of PBMNC colonies” value ([1]; 10 μg/ml)?
Answer: The value was “completely blocked”.

Question: With endostatin as the compound, how does the “number of EPC (P1H12-positive cells, percentage of total PBMNC)” value (EPC [2]; one patient of the first group, continuous infusion 60 mg/m^3/day, 130 days) read?
Answer: Its value is “not increased”.

Question: And the “percentage of EPC” value (EPC [2]; patient 13, faster progressing cancer, increased from 0.4% during 15 days of administration)?
Answer: The value was 3.8%.

Question: What about the “percentage of EPC” value (EPC [2]; patient #11, faster progressing cancer, increased from 1.6% during 30 days of administration) of the same compound?
Answer: Its value is 5.3%.

Question: And the EPC percentage (EPC [2]; patient #12, faster progressing cancer, daily IVB injections of about 240 mg/m^3, first 15 days)?
Answer: Its EPC percentage is “did not change significantly”.

Question: What about the “number of EPC (P1H12-positive cells, percentage of total PBMNC)” value (EPC [2]; patients #1, #2 and #3, continuous infusion 60 mg/m^3/day) of the same compound?
Answer: The value was “further lowered”.

Question: And the “number of EPC (P1H12-positive cells, percentage of total PBMNC)” value (EPC [2]; patients #2 and #3, slowly progressing cancer, daily intravenous injections of 60 mg/m^3)?
Answer: The value was “gradually decreased”.

Question: What about the “proportion of MECA-32 positive cells from total PBMNC” value (EPC [3]; Alzet pumps releasing murine endostatin 8-12 mg/kg/day, saline pumps approx. 2.5%, control mice 0.29%) of the same compound?
Answer: Its value is 0.67%.

Question: What about the “gated Flk-1 positive cells in the peripheral blood (FACS)” value (EPC [3]; pumps releasing murine endostatin 8-12 mg/kg/day, saline 0.625+/−0.19%, normal mice 0.22+/−0.04%) of the same compound?
Answer: The value was 0.305+/−0.05%.

Question: And the CAM vascularization (CAM vascularization)?
Answer: Its CAM vascularization is “greatly inhibit”.

Question: And the “formation of PBMNC colonies” value ([1]; 2 μg/ml)?
Answer: The value was “the number of colonies grew but the colonies were small and contained small round cells”.

Question: What about the “formation of PBMNC colonies” value ([1]; 10 μg/ml) of the same compound?
Answer: The value was “significantly lower than the control experiment”.

Question: And the “colonies from PBMNC of 1 ml peripheral mouse blood” value (EPC [4]; mice injected with microencapsulated cells producing endostatin only (approx. 0.5×10^6 cells per mouse), 7 days in culture)?
Answer: Its value is “no viable cell-containing colonies could be detected”.

Question: What about the “colonies from PBMNC of peripheral mouse blood” value (EPC [4]; mice received VEGF producing cells together with endostatin producing cells (0.5×10^6 alginate encapsulated cells of each)) of the same compound?
Answer: Its value is “only a few, small and round cell-containing colonies”.

Question: With “vascular endothelial growth factor [VEGF, reference compound]” as the compound, how does the “colonies from PBMNC of peripheral mouse blood” value (EPC [4]; mice injected with 0.5×10^6 microencapsulated cells producing VEGF) read?
Answer: Its value is “Large number of colonies”.
